Values joined by “and” are separate entries in the source; they are usually repeats but may differ in a detail not shown here. Equal entries are not always repeated.

The values that follow come from publication PMC10058761, “Heart-Type Fatty Acid Binding Protein Binds Long-Chain Acylcarnitines and Protects against Lipotoxicity” (International Journal of Molecular Sciences, 2023).

For assay [1], the target named is T1, human FABP3 (Homo sapiens, UniProt P05413).
T1 construct: His-tag (N); TEV cleavage site (N); made in house; host or cells: E. coli BL21(DE3)
Description: ITC assay of ligand binding to apo-FABP3. Conditions: for Kd / ΔG / ΔH / −TΔS / N (stoichiometry) / binding to FABP3 (binding heat effects) by ITC: KPi pH 7.6, 25 °C; for N (stoichiometry): protein assumed 100% active and delipidated. As to the method:
ITC experiments were carried out on the MicroCal™ iTC200 instrument (Malvern Instruments Ltd., Malvern, UK). Experiments were performed in KPi buffer without and with 0.1% (v/v) TX supplement. […] Experiments for the determination of the ΔCp were performed at three different temperatures: 16, 25, and 37 °C. […] Every titration started with a small 0.3 μL injection introduced to compensate for the diffusion effects. One of the following injection profiles was chosen based on the activity of the ligand and binding heat released: 1.2 μL × 32 or 1.5 μL × 26—all with 120 s time spacing between every injection and 600 rpm. Each ligand was titrated at least two times. The reference baseline consisting of small peaks of identical size (titration of the corresponding ligand into the buffer) was subtracted from the data before fitting to correct for the heat of the ligand dilution. The first injection was excluded from each dataset. The final data were fitted to a theoretical titration curve (one set of sites fitting model) using MicroCal Origin 7 SR4 software (OriginLab, Northampton, MA, USA).

The target of assay [2] is T1, human FABP3. Description: Ligand binding by NMR (2D 1H-15N HSQC chemical shift perturbations). Conditions: KPi buffer pH 7.6. As to the method:
NMR spectra were acquired on the 600 MHz Bruker Avance Neo spectrometer (Bruker Biospin GmbH, Rheinstetten, Germany) equipped with a 5-mm quadruple-resonance CryoProbe (QCI) with z-gradients. […] All experiments were performed in KPi buffer without or with TX and with the addition of 7% (v/v) D2O, 0.03% (v/v) NaN3, and 0.01% (v/v) SigmaFAST EDTA-free protease inhibitor cocktail to prevent protein degradation. The amount of organic solvent (ethanol or DMSO-d6) was below 2% (v/v) in each experiment.
3D HNCA, 3D HNCO, 3D HN(CA)CO, and 3D CBCA(CO)NH spectra were acquired for the backbone assignment. 3D [^1H,^1H]-nuclear Overhauser spectroscopy (NOESY)-^15N-heteronuclear single-quantum correlation (HSQC) spectrum was acquired using a mixing time of 100 ms and also used in the backbone assignment. 2D ^1H-^15N HSQC spectra were acquired for evaluation of the CSPs caused by the lipid binding. Chemical shifts were referenced internally to the residual water signal at 4.70 ppm relative to the 4,4-dimethyl-4-silapentane-1-sulfonic acid (DSS). […] Other complexes were analyzed by analogy and with the help of 3D [^1H-^1H]-NOESY-^15N-HSQC. All spectra were processed in TopSpin v. 4.1.1. (Bruker, Billerica, MA, USA) and analyzed in CARA 1.9.1. software. Residue-specific protein backbone amide assignment was performed based on the published chemical shifts. CSPs, Δδ, were calculated using Equation (1) with the scaling factor, α, which was set to 0.1 [67, 68]. (1) Δδ=1/2[δH2+α·δN^2],

Assay [3] concerns the target T1, human FABP3. Nature of the assay: ITC competitive binding experiments (FABP3 pre-saturated with a competing ligand). Conditions: FABP3 saturated with C18:1(n-9)t-carnitine, titrated with the FA, 25 °C. As to the method: ITC experiments were carried out on the MicroCal™ iTC200 instrument (Malvern Instruments Ltd., Malvern, UK). Experiments were performed in KPi buffer without and with 0.1% (v/v) TX supplement. All titrations except for the determination of the heat capacity, ΔCp, were performed at 25 °C using 20–120 μM protein. Experiments for the determination of the ΔCp were performed at three different temperatures: 16, 25, and 37 °C. 280 μL of the protein solution in the sample cell were titrated with the ligand solution diluted to 200–1200 μM depending on the enzyme concentration (to achieve a 1:10 or 1:5 ratio). Every titration started with a small 0.3 μL injection introduced to compensate for the diffusion effects. One of the following injection profiles was chosen based on the activity of the ligand and binding heat released: 1.2 μL × 32 or 1.5 μL × 26—all with 120 s time spacing between every injection and 600 rpm. Each ligand was titrated at least two times. The reference baseline consisting of small peaks of identical size (titration of the corresponding ligand into the buffer) was subtracted from the data before fitting to correct for the heat of the ligand dilution. The first injection was excluded from each dataset. […]

Assay [4] deals with T1, human FABP3. Description: ITC determination of heat capacity change at 16, 25 and 37 °C. Format: binding. Conditions: KPi with 0.1% TX; ΔH at 16, 25, 37 °C, linear regression. An excerpt: Heat capacity changes, ΔCp, are important indicators of the structural changes during ligand-to-protein binding in various environmental conditions and may reflect changes in the static and dynamic properties of the protein [33, 34]. Moreover, it may represent interactions with extra supplements, such as salts and detergents, and larger processes, such as changes in protein folding, solvent-accessible surface area (SASA), or protonation states within the active site. […] Thermodynamic parameters for the remaining LCFAs were determined in the KPi + TX buffer, while LCACs were tested in the KPi buffer without any additive. Figure 7 represents an example of the overlays of the ITC experiments for C18:1(n-9)c and the corresponding LCAC performed at the following temperatures: 16, 25, and 37 °C.
ITC experiments were carried out on the MicroCal™ iTC200 instrument (Malvern Instruments Ltd., Malvern, UK). Experiments were performed in KPi buffer without and with 0.1% (v/v) TX supplement. All titrations except for the determination of the heat capacity, ΔCp, were performed at 25 °C using 20–120 μM protein. Experiments for the determination of the ΔCp were performed at three different temperatures: 16, 25, and 37 °C. 280 μL of the protein solution in the sample cell were titrated with the ligand solution diluted to 200–1200 μM depending on the enzyme concentration (to achieve a 1:10 or 1:5 ratio). Every titration started with a small 0.3 μL injection introduced to compensate for the diffusion effects. One of the following injection profiles was chosen based on the activity of the ligand and binding heat released: 1.2 μL × 32 or 1.5 μL × 26—all with 120 s time spacing between every injection and 600 rpm. Each ligand was titrated at least two times. The reference baseline consisting of small peaks of identical size (titration of the corresponding ligand into the buffer) was subtracted from the data before fitting to correct for the heat of the ligand dilution. The first injection was excluded from each dataset. The final data were fitted to a theoretical titration curve (one set of sites fitting model) using MicroCal Origin 7 SR4 software (OriginLab, Northampton, MA, USA).

Where [5] appears, read: KPi without TX, Competitive Binding model.
The mark [6] stands for this setting: KPi without TX, One Set of Sites model.
Setting [7] is: KPi + 0.10% TX, Competitive Binding model.
Where [8] appears, read: KPi + 0.10% TX, One Set of Sites model.

T1 sequence (P05413 whole entry): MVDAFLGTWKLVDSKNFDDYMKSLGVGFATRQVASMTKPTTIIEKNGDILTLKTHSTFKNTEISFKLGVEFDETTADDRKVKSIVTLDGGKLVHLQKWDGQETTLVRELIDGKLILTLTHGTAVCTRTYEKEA

The Kd is the constant that tells how readily two partners part at equilibrium. Read a low Kd as tighter binding. As to `CCCCCCCC(=O)O` [C8:0, caprylate], on human FABP3 [1] (with 0.1% TX), binding was put at a Kd of 1109 ± 1 nM, the ΔG was -8.13 ± 0.01 kcal/mol, the ΔH is -12.6 ± 0.3 kcal/mol and the “−TΔS” value came to 4.5 ± 0.3 kcal/mol. For the same compound, the “N (stoichiometry)” value at human FABP3 [1] (with 0.1% TX) is listed as 1.0. Moreover, on human FABP3 [1] (without TX), the Kd turned out to be 1860 ± 50 nM, the ΔG was -7.82 ± 0.02 kcal/mol, the ΔH was -8.01 ± 0.09 kcal/mol and the “−TΔS” value was determined as 0.19 ± 0.07 kcal/mol. For the same compound, the “N (stoichiometry)” value at human FABP3 [1] (without TX) was 1.0.

With `CCCCCCCC(=O)O[C@H](CC(=O)O)C[N+](C)(C)C.[Cl-]` [C8:0-carnitine], at human FABP3 [2], the “binding to FABP3 by NMR (CSPs in 2D 1H-15N HSQC)” value (shortened to “binding to FABP3 by NMR”) is “did not bind”. Besides, on human FABP3 [1] (without TX), the “binding to FABP3 (binding heat effects) by ITC” value is “no binding”.

As for `CCCCCCCCCC(=O)O` [C10:0, caprate], at human FABP3 [1] (with 0.1% TX), binding was characterised by a dissociation constant (Kd) of 560 ± 20 nM, the ΔG was -8.535 ± 0.007 kcal/mol, the “−TΔS” value came out at 4.7 ± 0.3 kcal/mol and the “N (stoichiometry)” value was determined as 1.0. In addition, on human FABP3 [1] (without TX), the affinity, expressed as Kd, was 252 ± 4 nM; the ΔG is -9.01 ± 0.01 kcal/mol; the ΔH is -11.09 kcal/mol and -11.09 ± 0.08 kcal/mol; the “−TΔS” value is 2.08 ± 0.08 kcal/mol. In addition, the “N (stoichiometry)” value on human FABP3 [1] (without TX) is recorded as 1.0. At human FABP3 [3] (setting [5]), this compound yielded a ΔG of -11.8 ± 0.1 kcal/mol and a ΔH of -14.1 ± 0.2 kcal/mol. In addition, on human FABP3 [3] (setting [6]), the “-TΔS” value was 1.0 ± 0.1 kcal/mol; the affinity, expressed as Kd, was 360 ± 70 nM; the ΔG is -8.8 ± 0.1 kcal/mol; the ΔH is -9.8 ± 0.2 kcal/mol.

Regarding `CCCCCCCCCCCC(=O)O[C@H](CC(=O)O)C[N+](C)(C)C` [C12:0-carnitine], the “binding to FABP3 by NMR” value on human FABP3 [2] is given as “did not bind”. Also, the “binding to FABP3 (binding heat effects) by ITC” value on human FABP3 [1] (without TX) is recorded as “no binding”.

On to `CCCCCCCCCCCCCC(=O)O` [C14:0, myristate], for which, at human FABP3 [1] (with 0.1% TX), the dissociation constant (Kd) was found to be 300 ± 100 nM, the ΔG is -8.9 ± 0.2 kcal/mol, the ΔH is -10.9 ± 0.4 kcal/mol and the “−TΔS” value was 1.9 ± 0.2 kcal/mol. For the same compound, at human FABP3 [1] (with 0.1% TX), the “N (stoichiometry)” value is 1.0.

Take `CCCCCCCCCCCCCC(=O)O[C@H](CC(=O)O)C[N+](C)(C)C.[Cl-]` [C14:0-carnitine, miristoylcarnitine]: the “binding to FABP3 by NMR” value on human FABP3 [2] is “strong CSPs indicative of binding”. Also, on human FABP3 [1] (without TX), binding was put at a Kd of 11300 nM, the ΔG was -6.7 kcal/mol, the ΔH is -1.1 kcal/mol and the “−TΔS” value is -5.7 kcal/mol. The “N (stoichiometry)” value at human FABP3 [1] (without TX) worked out at 0.5.

On to `CCCCCCCCCCCCCCCC(=O)O` [C16:0, palmitate], for which, on human FABP3 [1] (with 0.1% TX), the ΔG was -9.34 ± 0.07 kcal/mol, the ΔH was -8.7 ± 0.9 kcal/mol, the “−TΔS” value was -0.6 ± 0.8 kcal/mol and the “N (stoichiometry)” value amounted to 1.0. Besides, on human FABP3 [3] (setting [7]), the “-TΔS” value came out at 0.2 ± 0.1 kcal/mol, the ΔG was -11.62 kcal/mol and the ΔH was -11.77 kcal/mol. Moreover, at human FABP3 [3] (setting [8]), the “-TΔS” value was -1.14 ± 0.05 kcal/mol, the ΔG is -8.63 ± 0.01 kcal/mol and the ΔH was -7.49 ± 0.05 kcal/mol.

With `CCCCCCCCCCCCCCCC(=O)SCCNC(=O)CCNC(=O)[C@H](O)C(C)(C)COP(=O)(O)OP(=O)(O)OC[C@H]1O[C@@H](n2cnc3c(N)ncnc32)[C@H](O)[C@@H]1OP(=O)(O)O` [C16:0-CoA, palmitoyl-CoA], the “binding to FABP3 by NMR” value at human FABP3 [2] is reported as “strong CSPs indicative of binding”. Moreover, on human FABP3 [1] (without TX), binding was characterised by a dissociation constant (Kd) of 8900 ± 1200 nM, the ΔG is -6.90 ± 0.08 kcal/mol, the ΔH was -5.04 ± 0.09 kcal/mol and the “−TΔS” value is -1.86 ± 0.01 kcal/mol. Besides, the “N (stoichiometry)” value on human FABP3 [1] (without TX) stood at 1.0. Besides, the “effect of detergent addition on binding to FABP3 (ITC)” value at human FABP3 [1] (KPi with TX detergent) was “completely blocked the binding”.

On to `CCCCCCCCCCCCCCCCCC(=O)O` [C18:0, stearate], for which, on human FABP3 [1] (with 0.1% TX), the affinity, expressed as Kd, was 700 ± 100 nM; the ΔG is -8.34 ± 0.04 kcal/mol; the ΔH was -6.4 ± 0.4 kcal/mol; the “−TΔS” value is -2.0 ± 0.4 kcal/mol. Moreover, the “N (stoichiometry)” value on human FABP3 [1] (with 0.1% TX) worked out at 1.0.

Take `CCCCCCCC/C=C\CCCCCCCC(=O)O` [C18:1(n-9)c, oleate]: at human FABP3 [1] (with 0.1% TX), the affinity, expressed as Kd, was 290 ± 30 nM; the ΔG is -8.93 ± 0.06 kcal/mol; the ΔH was -10.0 ± 0.4 kcal/mol; the “−TΔS” value was determined as 1.1 ± 0.5 kcal/mol. Moreover, the “N (stoichiometry)” value on human FABP3 [1] (with 0.1% TX) was found to be 1.0. For the same compound, the ΔCp at human FABP3 [4] was −0.29 ± 0.06 kcal∙mol^−1∙K^−1.

Regarding `CCCCCCCC/C=C/CCCCCCCC(=O)O` [C18:1(n-9)t, elaidate], on human FABP3 [1] (with 0.1% TX), the affinity, expressed as Kd, was 210 ± 20 nM; the ΔG was -9.12 ± 0.06 kcal/mol; the ΔH is -8.0 ± 0.9 kcal/mol; the “−TΔS” value was -1.1 ± 0.9 kcal/mol. At human FABP3 [1] (with 0.1% TX), the “N (stoichiometry)” value was found to be 1.0. On human FABP3 [4], this compound registered a ΔCp of −0.15 ± 0.02 kcal∙mol^−1∙K^−1.

With `C[N+](C)(C)C[C@H](O)CC(=O)[O-]` [carnitine, L-carnitine], the “binding to FABP3 by NMR” value at human FABP3 [2] is on record as “neither bind nor interact”.

For the compound Triton™ X-100 [TX], the “binding to FABP3 by NMR” value at human FABP3 [2] is reported as “did not interact with the FABP3 core structure”.
